Test: pKa of couplers, neutralization-titration method
Assay type: physicochemical
Details: neutralization-titration method (asterisk)
Excerpt: (§1) In this invention, a pKa value means a common logarithmic value of the reciprocal of a proton-dissociation equilibrium constant K at the active site of a coupler.
As described in, for example, J.C.S., Perkin I, 809(1973) and 1768(1973), J. Phot. Sci., 22,49(1974), E. Pelizzrtti(3M, Italia), C. Saini(Toino Vniv.) and J. Phot. Sci., 13,248(1985) B. P. Brand (ICI), a pKa value can be measured in a spectrophotometric method or a neutralization-titration mehtod, using a suitable solvent such as a mixture of water and organic solvent. […]
Certain of couplers have plural dissociable protons. […] Among those values, however, each pKa value of this invention means a value measured in relation to making anionic the nucleus of a coupler capable of forming a dye upon coupling reaction with the oxidized product of a color developing agent.
Either of the above-described two measurement methods may be so selected out as to meet the characteristics of a coupler subjected to a measurement. […] Howerer, the difference in pKa value between a magenta coupler and yellow coupler used in the invention, i.e., a value of pKa 1-pKa 2, can be applied to the invention, provided that both of the pKa1 and pKa2 values are measured in one and the same method of the two.
In Table 1, pKa values with asterisks are values measured by the neutralization-titration method. […]

Work on `CCCCCCCCCCCCCC(=O)Nc1ccc(Cl)c(NC2=NN(c3c(Cl)cc(Cl)cc3Cl)C(=O)C2)c1` [MC-1] yielded a pKa of 10.07.

Test: pKa of couplers, spectrophotometric method
Assay type: physicochemical
Details: spectrophotometric method (no asterisk); 2-butoxyethanol and water (30:70)
Excerpt: as §1
As described in, for example, J.C.S., Perkin I, 809(1973) and 1768(1973), J. Phot. Sci., 22,49(1974), E. Pelizzrtti(3M, Italia), C. Saini(Toino Vniv.) and J. Phot. Sci., 13,248(1985) B. P. Brand (ICI), a pKa value can be measured in a spectrophotometric method or a neutralization-titration mehtod, using a suitable solvent such as a mixture of water and organic solvent.
In the spectrophotometric method, a pka value of coupler is regarded as a pH value obtained in correspondence with the inflection point of a rerational curve obtained between the pH and absorbance of a coupler solution, utilizing the fact that there is a difference in absorbance between the coupler itself and the anion thereof.
To be more concrete, the above-mentioned coupler solution is prepared by the use of a mixture of 2-butoxyethanol and water (30:70) as a solvent. The concentration of the coupler solution is adjusted to the order of 1×10^-5 to 1×10^-2 M so that pKa values can readily be measured. The coupler solution is added with anhydrous potassium carbonate in an amount of 3 g per liter, and is further adjusted to be various pH values by adding hydrochloric acid and potassium hydroxide correspondingly. The spectral absorbance of each solution is then measured so as to obtain a relational curve made between the pH value and the spectral absorbance of each solution.
Certain of couplers have plural dissociable protons. In those cases, plural pKa values may be obtained. Among those values, however, each pKa value of this invention means a value measured in relation to making anionic the nucleus of a coupler capable of forming a dye upon coupling reaction with the oxidized product of a color developing agent.
Either of the above-described two measurement methods may be so selected out as to meet the characteristics of a coupler subjected to a measurement. When measuring one and the same coupler in the two methods, respectively, there are some differences between the resulted pKa values. Howerer, the difference in pKa value between a magenta coupler and yellow coupler used in the invention, i.e., a value of pKa 1-pKa 2, can be applied to the invention, provided that both of the pKa1 and pKa2 values are measured in one and the same method of the two.
In Table 1, pKa values with asterisks are values measured by the neutralization-titration method. The other valves without asterisk are measured by the spectrophotometric method.
Asterisks in Table 2 have the same mean as in Table 1.

First: CCCCCCCCCCCCOc1ccc(S(=O)(=O)Nc2ccc(CCCc3n[nH]c4c(Cl)c(C)nn34)cc2)cc1 [M-1]
Second: CCCCCCCCCCC(Oc1ccc(C(C)(C)c2ccc(O)cc2)cc1)C(=O)Nc1ccc(S(=O)(=O)CCc2n[nH]c3c(Cl)c(C)nn23)cc1 (stereo not drawn) [M-12]
The pKa of the first is higher: 10.24 for the first, 9.71 for the second.

Going from `CCCCCCCCCCCCCCCCCCS(=O)(=O)CC(C)c1n[nH]c2c(Cl)c(C)nn12` (stereo not drawn) [M-3] to `CCCCCCCCCCCCCCCCS(=O)(=O)CCC(C)c1n[nH]c2c(Cl)c(C(C)C)nn12` (stereo not drawn) [M-22], the pKa rises from 8.99 to 9.70.

`CCCCCCCCC(CCCCCC)CS(=O)(=O)CCc1n[nH]c2c(Cl)c(C)nn12` (stereo not drawn) [M-4] and `CCCCCCCCC(CCCCCC)CS(=O)(=O)CCc1nn2c(C)n[nH]c2c1Cl` (stereo not drawn) [M-9] are within 0.2 log units of each other in pKa: 9.11 for the first, 9.18 for the second.

Compared with `CCCCC(Oc1ccc(C(C)(C)CC)cc1C(C)(C)CC)C(=O)Nc1ccc(CCc2n[nH]c3c(Cl)c(CC)nn23)cc1` (stereo not drawn) [M-16], `CCCCOc1ccc(C(C)(C)CC(C)(C)C)cc1Sc1c(SCC)nn2c(CCNC(=O)C(CCCC)Oc3ccc(C(C)(C)CC)cc3C(C)(C)CC)n[nH]c12` (stereo not drawn) [M-49] is lower in pKa: 10.30 for the first, 9.43 for the second.

Going from `CCCCOc1ccc(C(C)(C)CC(C)(C)C)cc1S(=O)(=O)CCCc1n[nH]c2c(Cl)c(C(C)C)nn12` [M-21] to `CCCCOc1ccc(C(C)(C)CC(C)(C)C)cc1S(=O)(=O)CCCc1n[nH]c2c(Cl)c(C(C)(C)C)nn12` [M-33], the pKa rises from 10.07 to 10.39.

First: CCCCCCCCOc1ccc(C)cc1S(=O)(=O)CCS(=O)(=O)CCC(C)c1n[nH]c2c(Cl)c(C(C)C)nn12 (stereo not drawn) [M-26]
Second: CCCCOc1ccc(NS(=O)(=O)c2cc(C(C)(C)CC(C)(C)C)ccc2OCCCC)cc1S(=O)(=O)Nc1ccc(CCCc2n[nH]c3c(Cl)c(C(C)(C)C)nn23)cc1 [M-44]
The pKa of the first is lower: 9.68 for the first, 10.80 for the second.

First: CCC(C)(C)c1ccc(OCC(=O)Nc2ccc(S(=O)(=O)CC(C)(C)c3n[nH]c4c(Cl)c(C(C)(C)C)nn34)cc2)c(C(C)(C)CC)c1 [M-40]
Second: CCC(C)(C)c1ccc(OCCCC(=O)Nc2ccc(Cl)c(NC(=O)C(Oc3ccc(S(=O)(=O)c4ccc(OCc5ccccc5)cc4)cc3)C(=O)C(C)(C)C)c2)c(C(C)(C)CC)c1 (stereo not drawn) [Y-8]
The pKa of the first is higher: 9.90 for the first, 8.60 for the second.
